Laboratory results as given in patent US12552826B2, “PRMT5 inhibitors” (Merck Sharp & Dohme LLC, priority 2018, dated 2026).
Read-outs that look alike come from different tables or passages of the source.

Key:
[1] = molecular target: T1, PRMT5-MEP50 enzyme complex (Homo sapiens, UniProt O14744); test: PRMT5-MEP50 Enzyme Methylation Assay; format: biochemical
T1 construct: Full-length (FL)-PRMT5-MEP50 enzyme complex (recombinant proteins from baculovirus-transfected Sf21 cells); made in house; host or cells: baculovirus-transfected Sf21 insect cells
Method: PRMT5-MEP50 biochemical assay is a direct measurement of the methylation activity of the enzyme complex on a short peptide substrate derived from the N-terminus of H4 histone. Methylation experiment is performed with recombinant PRMT5-MEP50 protein complex. The assessment of inhibitory effect of small molecules is measured by the effectiveness of the compounds to inhibit this reaction (EC50).
In this assay, the potency (EC50) of each compound was determined from a twenty-point (1:2 serial dilution; top compound concentration of 100000 nM) titration curve using the following outlined procedure. To each well of a white ProxiPlus 384 well-plate, 100 nL of compound (1% DMSO in final assay volume of 10 μL) was dispensed, followed by the addition of 8 μL of 1× assay buffer (50 mM Bicine pH 8.0, 1 mM DTT, 0.004% Tween20, 0.01% BSA) containing 1.25 nM of Full-length (FL)-PRMT5-MEP50 enzyme complex (recombinant proteins from baculovirus-transfected Sf21 cells: FL-PRMT5; MW=[…] and FL-MEP50; MW=38614) and 1 μL of 150 μM S-(5′-Adenosyl)-L-Methionine Chloride (SAM). Plates were sealed and placed in a 37° C. humidified chamber for a 60 minutes pre-incubation with compound. Subsequently, each reaction was initiated by the addition of 1 μL 1× assay buffer containing 750 nM biotinylated H4R3 (Me1) peptide. The final reaction in each well of 10 μL consists of 1.0 nM PRMT5-MEP50, 75 nM biotinylated-peptide, and 15 μM SAM. Methylation reactions were allowed to proceed for 150 minutes in a sealed plate at 37° C. Reactions were immediately quenched by the addition of 1 μL of 5% formic acid. Plates were then frozen and shipped to SAMDITM Tech Inc. to determine the percent conversion from H4R^3 (Me1) to H4R^3 (Me2). Dose-response curves were generated by plotting percent effect (% product conversion; Y-axis) vs. Log10 compound concentrations (X-axis). EC50 values were determined by non-linear regression according to models for either sigmoidal (4 parameters) or biphasic (7 parameters) dose-response curves.

PRMT5 = molecular target: T2, PRMT5 (Homo sapiens, UniProt O14744); test: PRMT5 Cell Target Engagement (TE) Assay; format: cell-based; conditions: MCF-7 cells, 3 days treatment, nuclear SDMA by high content imaging
T2 construct: endogenous in cells; host or cells: MCF-7
Outline: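 MCF-7 cells seeded 5 h, then treated 3 days at 37 °C with 10-point 1:3 dilutions from 10000 nM. Fixed cells immunostained for SDMA with AF488 secondary; nuclear intensity imaged per cell and expressed as % inhibition vs DMSO. EC50 from 4-parameter robust fit.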

[2] = recombinant FL-PRMT5-MEP50, biotinylated H4R3(Me1) peptide, 15 μM SAM, single EC50 (4 parameter sigmoidal fit) or first EC50 of 7 parameter biphasic fit, read-out: Enzyme Methylation Assay (EC50 or EC50_1)
[3] = second EC50 of 7 parameter biphasic fit, read-out: Enzyme Methylation Assay (EC50_2)

T1 sequence (O14744 whole entry): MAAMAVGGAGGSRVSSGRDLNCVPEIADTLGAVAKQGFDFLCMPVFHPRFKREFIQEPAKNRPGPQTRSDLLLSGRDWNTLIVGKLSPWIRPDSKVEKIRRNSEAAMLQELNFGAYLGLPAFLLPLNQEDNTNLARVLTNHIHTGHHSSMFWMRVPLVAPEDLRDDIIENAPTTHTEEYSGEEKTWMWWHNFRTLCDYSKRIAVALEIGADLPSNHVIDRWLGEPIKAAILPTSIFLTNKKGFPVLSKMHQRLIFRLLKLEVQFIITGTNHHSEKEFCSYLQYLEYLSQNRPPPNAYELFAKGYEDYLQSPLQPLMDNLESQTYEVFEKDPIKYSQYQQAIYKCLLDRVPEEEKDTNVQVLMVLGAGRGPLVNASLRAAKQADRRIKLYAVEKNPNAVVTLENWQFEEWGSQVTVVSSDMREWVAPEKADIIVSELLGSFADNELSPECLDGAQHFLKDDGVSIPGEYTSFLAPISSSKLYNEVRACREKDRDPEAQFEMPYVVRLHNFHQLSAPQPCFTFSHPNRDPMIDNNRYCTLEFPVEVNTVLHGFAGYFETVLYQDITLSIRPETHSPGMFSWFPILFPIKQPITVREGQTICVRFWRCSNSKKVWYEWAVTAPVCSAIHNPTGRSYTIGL
T1 sequence (Q9BQA1 whole entry partner): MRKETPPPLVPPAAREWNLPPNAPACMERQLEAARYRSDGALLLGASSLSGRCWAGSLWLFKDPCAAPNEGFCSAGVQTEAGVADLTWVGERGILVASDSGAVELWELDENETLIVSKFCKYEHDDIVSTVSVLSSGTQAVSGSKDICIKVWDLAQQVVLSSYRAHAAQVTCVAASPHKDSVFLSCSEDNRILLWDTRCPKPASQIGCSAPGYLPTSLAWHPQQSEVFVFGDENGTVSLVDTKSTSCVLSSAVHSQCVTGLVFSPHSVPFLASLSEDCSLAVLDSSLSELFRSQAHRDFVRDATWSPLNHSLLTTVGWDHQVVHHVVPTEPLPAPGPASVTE
T2 sequence (O14744 whole entry): as the sequence (O14744 whole entry) above
T2 sequence (Q9BQA1 whole entry partner): as the sequence (Q9BQA1 whole entry partner) above

| EC50 [1, 2] [nM] | EC50 [1, 3] [nM] | EC50 (PRMT5) [nM] | Structure (SMILES) |
| --- | --- | --- | --- |
| 15.5 | 1700 | > 10000 | C[C@@]1(O)[C@@H]([C@@H](O)c2cccc3c2CNCC3)O[C@@H](n2ccc3c(N)ncnc32)[C@@H]1O [Example 71, 7-[(5S)-3-C-methyl-5-C-(1,2,3,4-tetrahydroisoquinolin-8-yl)-beta-D-ribofuranosyl]-7H-pyrrolo[2,3-d]pyrimidin-4-amine] |
| 343 | 33100 | > 10000 | Cc1ncnc2c1ccn2[C@@H]1O[C@H]([C@H](C)c2cccc3c2CNCC3)[C@@](C)(O)[C@H]1O [Example 86, (2R,3S,4R,5R)-3-methyl-5-(4-methyl-7H-pyrrolo[2,3-d]pyrimidin-7-yl)-2-((R)-1-(1,2,3,4-tetrahydroisoquinolin-8-yl)ethyl)tetrahydrofuran-3,4-diol] |
| 1.79 | 42 | 1190 | C[C@@]1(O)[C@@H]([C@H](O)c2cccc3c2CNCC3)O[C@@H](n2ccc3c(N)ncnc32)[C@@H]1O [Example 70, 7-[(5R)-3-C-methyl-5-C-(1,2,3,4-tetrahydroisoquinolin-8-yl)-beta-D-ribofuranosyl]-7H-pyrrolo[2,3-d]pyrimidin-4-amine] |
| 1.47 | 40 | 39 | C[C@@]1(O)[C@@H]([C@H](O)c2ccc(Cl)c(Cl)c2)O[C@@H](n2ccc3c(N)ncnc32)[C@@H]1O [Example 13, 7-[(5R)-5-C-(3,4-dichlorophenyl)-3-C-methyl-beta-D-ribofuranosyl]-7H-pyrrolo[2,3-d]pyrimidin-4-amine] |
| 0.51 | 75 | 65 | C[C@@]1(O)[C@@H]([C@H](O)c2ccc(F)c(Cl)c2)O[C@@H](n2ccc3c(N)ncnc32)[C@@H]1O [Example 15, 7-[(5R)-5-C-(3-chloro-4-fluorophenyl)-3-C-methyl-beta-D-ribofuranosyl]-7H-pyrrolo[2,3-d]pyrimidin-4-amine] |
| 34 | 2660 | 9380 | C=C(c1cccc2c1CNCC2)[C@H]1O[C@@H](n2ccc3c(C)ncnc32)[C@H](O)[C@]1(C)O [Example 85, (2R,3S,4R,5R)-3-methyl-5-(4-methyl-7H-pyrrolo[2,3-d]pyrimidin-7-yl)-2-(1-(1,2,3,4-tetrahydroisoquinolin-8-yl)vinyl)tetrahydrofuran-3,4-diol] |
|  |  | 166 | Cc1cccc([C@@H](O)[C@H]2O[C@@H](n3ccc4c(N)ncnc43)[C@H](O)[C@]2(C)O)c1 [Example 38, 7-[(5R)-3-C-methyl-5-C-(3-methylphenyl)-beta-D-ribofuranosyl]-7H-pyrrolo[2,3-d]pyrimidin-4-amine] |
|  |  | > 10000 | C[C@@]1(O)[C@@H]([C@@H](O)c2ccc(F)c(F)c2)O[C@@H](n2ccc3c(N)ncnc32)[C@@H]1O [Example 2, (2R,3S,4R,5R)-5-(4-amino-7H-pyrrolo[2,3-d]pyrimidin-7-yl)-2-((S)-(3,4-difluorophenyl)(hydroxy)methyl)-3-methyltetrahydrofuran-3,4-diol] |
|  |  | > 10000 | C[C@@]1(O)[C@@H]([C@@H](O)c2cccc(F)c2F)O[C@@H](n2ccc3c(N)ncnc32)[C@@H]1O [Example 45, 7-[(5S)-5-C-(2,3-difluorophenyl)-3-C-methyl-beta-D-ribofuranosyl]-7H-pyrrolo[2,3-d]pyrimidin-4-amine] |
|  |  | 2710 | C[C@@]1(O)[C@@H]([C@H](O)c2cncc(C(F)F)c2)O[C@@H](n2ccc3c(N)ncnc32)[C@@H]1O [Example 74, 7-{(5R)-5-C-[5-(difluoromethyl)pyridin-3-yl]-3-C-methyl-beta-D-ribofuranosyl}-7H-pyrrolo[2,3-d]pyrimidin-4-amine] |
